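Values below derive from 48-hour exposures of cells grown in 96-well plates, with endpoints linearly interpolated between the two concentrations bracketing the appropriate inhibition level. TGI: total growth inhibition.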
Columns and labels:
Assay in all cases: NCI tumour cell line growth inhibition, 48 h
[1] = tested on: OVCAR-5 ovarian
[2] = tested on: HOP-92 NSCLC
[3] = tested on: SF-295 CNS
[4] = tested on: ACHN renal
[5] = tested on: OVCAR-3 ovarian
[6] = tested on: PC-3 prostate
[7] = tested on: CCRF-CEM leukemia
[8] = tested on: K-562 leukemia
[9] = tested on: SW-620 colon
[10] = tested on: HOP-62 NSCLC
[11] = tested on: A549 NSCLC
[12] = tested on: TK-10 renal
[13] = tested on: CAKI-1 renal
[14] = tested on: SK-OV-3 ovarian
[15] = tested on: M14 melanoma
[16] = tested on: NCI-H460 lung
[17] = tested on: HS 578T breast
[18] = tested on: DU-145 prostate
[19] = tested on: SK-MEL-2 melanoma
[20] = tested on: NCI-H226 lung
[21] = tested on: HL-60(TB) leukemia
[22] = tested on: EKVX NSCLC
[23] = tested on: RXF 393 renal
[24] = tested on: 786-0 renal
[25] = tested on: NCI/ADR-RES ovarian
[26] = tested on: SF-539 CNS
[27] = tested on: HCT-116 colon
[28] = tested on: COLO 205 colon
[29] = tested on: MCF7 breast
[30] = tested on: HCT-15 colon
[31] = tested on: UACC-257 melanoma
[32] = tested on: SNB-75 CNS
[33] = tested on: A498 renal
[34] = tested on: NCI-H23 lung
[35] = tested on: HT29 colon
[36] = tested on: MDA-MB-231 breast
[37] = tested on: MDA-N
[38] = tested on: SNB-19 CNS
[39] = tested on: BT-549 breast
[40] = tested on: UO-31 renal
[41] = tested on: OVCAR-8 ovarian
[42] = tested on: LOX IMVI melanoma
[43] = tested on: NCI-H522 lung
[44] = tested on: RPMI-8226 leukemia
[45] = tested on: MDA-MB-435
[46] = tested on: KM12 colon
[47] = tested on: SR leukemia
[48] = tested on: MOLT-4 leukemia
[49] = tested on: T-47D breast
[50] = tested on: OVCAR-4 ovarian
[51] = tested on: SK-MEL-28 melanoma
[52] = tested on: SK-MEL-5 melanoma
[53] = tested on: SF-268 CNS
[54] = tested on: SN12C renal
[55] = tested on: MALME-3M melanoma
[56] = tested on: U251 CNS
[57] = tested on: IGROV1 ovarian
[58] = tested on: UACC-62 melanoma

For N#CC(C#N)N=Nc1ccc(-c2nc3ccccc3[nH]2)cc1, the TGI [1] was over 100 µM, the TGI [2] was 49.6 µM and the TGI [3] was over 100 µM. For the same compound, the TGI [4] was 29 µM, the TGI [5] was 37.8 µM and the TGI [6] was 50.4 µM. For the same compound, the TGI [7] was 36.8 µM, the TGI [8] was over 100 µM and the TGI [9] was 46.9 µM. For the same compound, the TGI [10] was over 100 µM, the TGI [11] was over 100 µM and the TGI [12] was 73.4 µM. For the same compound, the TGI [13] was 82.6 µM, the TGI [14] was over 100 µM and the TGI [15] was 52.3 µM. For the same compound, the TGI [16] was over 100 µM, the TGI [17] was over 100 µM and the TGI [18] was 39.6 µM. It also gave a TGI [19] of 64 µM, a TGI [20] of over 100 µM and a TGI [21] of 1.38 µM. It also gave a TGI [22] of over 100 µM, a TGI [23] of 34.8 µM and a TGI [24] of 70.9 µM. The TGI [25] was 43.2 µM, the TGI [26] was 35.5 µM and the TGI [27] was 43.2 µM. It also gave a TGI [28] of 21.8 µM, a TGI [29] of 37.6 µM and a TGI [30] of 58.7 µM. It also gave a TGI [31] of 40.9 µM, a TGI [32] of over 100 µM and a TGI [33] of over 100 µM. It also gave a TGI [34] of 66 µM, a TGI [35] of over 100 µM and a TGI [36] of 35.5 µM. It also gave a TGI [37] of 50.6 µM, a TGI [38] of over 100 µM and a TGI [39] of 36.3 µM. For the same compound, the TGI [40] was 31.1 µM, the TGI [41] was 47.7 µM and the TGI [42] was 32.7 µM. The TGI [43] was 22.9 µM, the TGI [44] was over 100 µM and the TGI [45] was 40 µM. It also gave a TGI [46] of over 100 µM, a TGI [47] of over 100 µM and a TGI [48] of over 100 µM. It also gave a TGI [49] of 55.7 µM, a TGI [50] of 68.9 µM and a TGI [51] of 52 µM. For the same compound, the TGI [52] was over 100 µM, the TGI [53] was 66.4 µM and the TGI [54] was over 100 µM. For the same compound, the TGI [55] was 28 µM, the TGI [56] was over 100 µM and the TGI [57] was 37.9 µM.

In the case of Nc1ccc2nc3n(c(=O)c2c1)CCCCC3, the TGI [1] is reported as over 100 µM, the TGI [2] is reported as over 100 µM and the TGI [3] is reported as over 100 µM. It also gave a TGI [4] of over 100 µM, a TGI [5] of over 100 µM and a TGI [6] of over 100 µM. For the same compound, the TGI [58] was over 100 µM, the TGI [7] was over 100 µM and the TGI [8] was over 100 µM. The TGI [9] was over 100 µM, the TGI [10] was over 100 µM and the TGI [11] was over 100 µM. It also gave a TGI [12] of over 100 µM, a TGI [13] of over 100 µM and a TGI [14] of over 100 µM. The TGI [15] was over 100 µM, the TGI [16] was over 100 µM and the TGI [17] was over 100 µM. The TGI [18] was over 100 µM, the TGI [19] was over 100 µM and the TGI [20] was over 100 µM. For the same compound, the TGI [21] was over 100 µM, the TGI [22] was over 100 µM and the TGI [23] was over 100 µM. It also gave a TGI [24] of over 100 µM, a TGI [25] of over 100 µM and a TGI [26] of over 100 µM. For the same compound, the TGI [27] was over 100 µM, the TGI [28] was over 100 µM and the TGI [29] was over 100 µM. For the same compound, the TGI [30] was over 100 µM, the TGI [31] was over 100 µM and the TGI [32] was over 100 µM. It also gave a TGI [33] of over 100 µM, a TGI [34] of over 100 µM and a TGI [35] of over 100 µM. It also gave a TGI [36] of over 100 µM, a TGI [37] of over 100 µM and a TGI [39] of over 100 µM. The TGI [40] was over 100 µM, the TGI [41] was over 100 µM and the TGI [42] was over 100 µM. It also gave a TGI [43] of over 100 µM, a TGI [44] of over 100 µM and a TGI [45] of over 100 µM. For the same compound, the TGI [46] was over 100 µM, the TGI [47] was over 100 µM and the TGI [48] was over 100 µM. For the same compound, the TGI [49] was over 100 µM, the TGI [50] was over 100 µM and the TGI [51] was over 100 µM. For the same compound, the TGI [52] was over 100 µM, the TGI [53] was over 100 µM and the TGI [54] was over 100 µM. It also gave a TGI [55] of over 100 µM, a TGI [56] of over 100 µM and a TGI [57] of over 100 µM.

Work on S=C(NC/C(Br)=C/Br)Nc1cccc2ccccc12 yielded a TGI [1] of over 100 µM, a TGI [2] of 55.9 µM and a TGI [3] of over 100 µM. For the same compound, the TGI [4] was 86.6 µM, the TGI [5] was 71.8 µM and the TGI [6] was 71.7 µM. It also gave a TGI [58] of 67.7 µM, a TGI [7] of 66.2 µM and a TGI [8] of 31 µM. It also gave a TGI [10] of 94 µM, a TGI [11] of over 100 µM and a TGI [12] of over 100 µM. The TGI [13] was over 100 µM, the TGI [14] was over 100 µM and the TGI [15] was 43.7 µM. For the same compound, the TGI [17] was over 100 µM, the TGI [18] was over 100 µM and the TGI [19] was 48.5 µM. For the same compound, the TGI [20] was over 100 µM, the TGI [21] was 37.3 µM and the TGI [22] was over 100 µM. The TGI [23] was over 100 µM, the TGI [24] was over 100 µM and the TGI [25] was 50.9 µM. The TGI [26] was 69.1 µM, the TGI [27] was 61.9 µM and the TGI [28] was 32.7 µM. For the same compound, the TGI [29] was 44.4 µM, the TGI [30] was over 100 µM and the TGI [31] was over 100 µM. The TGI [32] was over 100 µM, the TGI [33] was 90.4 µM and the TGI [34] was 74.5 µM. For the same compound, the TGI [35] was over 100 µM, the TGI [36] was 51.3 µM and the TGI [37] was 72.7 µM. For the same compound, the TGI [38] was over 100 µM, the TGI [39] was 84.6 µM and the TGI [40] was 55.2 µM. For the same compound, the TGI [41] was over 100 µM, the TGI [42] was over 100 µM and the TGI [43] was 74.6 µM. It also gave a TGI [44] of 44.7 µM, a TGI [45] of over 100 µM and a TGI [47] of over 100 µM. It also gave a TGI [48] of 46.8 µM, a TGI [49] of over 100 µM and a TGI [50] of over 100 µM. It also gave a TGI [52] of 34.3 µM, a TGI [54] of 53.1 µM and a TGI [55] of 78.8 µM. It also gave a TGI [56] of over 100 µM and a TGI [57] of over 100 µM.

Source: PubChem BioAssay (NCI)
